These results are taken from patent US12559529B2, “NPY2 receptor agonists” (Boehringer Ingelheim International GmbH, priority 2019, dated 2026).

As usually defined, the Ki is the dissociation constant of the complex between target and ligand, obtained from inhibition or displacement.

One experiment relates to normal NMRI mice. Kind of experiment: Effect on acute food intake in normal NMRI mice. Format: in vivo. The settings on record: male NMRI mice, 10 nmol/kg subcutaneously once. The gist of the method: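 Male NMRI mice acclimatized in an HM-2 real-time food intake monitoring system, fasted 6 h before dark phase. Single subcutaneous dose of 10 nmol/kg peptide given 1 h before dark; n=7-8. Food intake expressed as % of vehicle group (50 mM phosphate pH7, 5% Mannitol).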

Experiment [1] deals with T1, Human Neuropeptide Y2 Receptor (Homo sapiens, UniProt P49146).
T1 construct: purchased CHEMICON HTS066M
T1 sequence (P49146 1-381): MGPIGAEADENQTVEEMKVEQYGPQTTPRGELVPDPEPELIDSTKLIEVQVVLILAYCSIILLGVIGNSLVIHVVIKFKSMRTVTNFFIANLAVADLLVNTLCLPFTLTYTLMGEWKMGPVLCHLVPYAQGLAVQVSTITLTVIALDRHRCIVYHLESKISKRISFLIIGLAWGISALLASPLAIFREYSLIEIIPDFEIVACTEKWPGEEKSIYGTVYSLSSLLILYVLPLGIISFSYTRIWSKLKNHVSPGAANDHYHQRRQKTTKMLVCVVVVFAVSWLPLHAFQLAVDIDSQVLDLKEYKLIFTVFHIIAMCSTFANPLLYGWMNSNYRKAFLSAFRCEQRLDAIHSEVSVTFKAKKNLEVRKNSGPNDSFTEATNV
Kind of experiment: Radioligand binding competition assay (RLB). To be noted: Table 3; human 125I-PYY (1-36) 0.02 nM, Y2 receptor membranes; read-out: Ki. The gist of the method:
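Membranes from cells expressing human Y2 receptor (0.5 μg protein/well) were incubated with radioligand and serially diluted peptides in 50 mM HEPES, 5 mM MgCl2, 1 mM CaCl2, 0.2% ovalbumin, pH 7.4, for 2 h at room temperature with shaking. Bound radioactivity was collected by filtration and counted; IC50 from sigmoidal nonlinear regression.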

For `CC(C)CC(=O)N[C@@H](C)C(=O)N1CCC[C@H]1C(=O)N[C@@H](CCC(=O)O)C(=O)N[C@@H](CCCCNC(=O)COCCOCCNC(=O)COCCOCCNC(=O)CC[C@H](NC(=O)CCCCCCCCCCCCCCCCC(=O)O)C(=O)O)C(=O)N1CCC[C@H]1C(=O)N[C@@H](CCC(=O)O)C(=O)N[C@@H](CCC(=O)O)C(=O)N[C@@H](CC(=O)O)C(=O)N[C@@H](C)C(=O)N[C@@H](CO)C(=O)N1CCC[C@H]1C(=O)N[C@@H](CCC(=O)O)C(=O)N[C@@H](CCC(=O)O)C(=O)N[C@@H](CC(C)C)C(=O)N[C@@H](CCC(N)=O)C(=O)N[C@@H](CCCNC(=N)N)C(=O)N[C@@H](Cc1ccc(O)cc1)C(=O)N[C@@H](Cc1ccc(O)cc1)C(=O)N[C@H](C(=O)N[C@@H](CCC(=O)O)C(=O)N[C@@H](CC(C)C)C(=O)N[C@@H](CCCNC(=N)N)C(=O)N[C@@H](Cc1c[nH]cn1)C(=O)N[C@@H](Cc1ccc(O)cc1)C(=O)N[C@@H](Cc1ccc(O)cc1)C(=O)N[C@@H](CC(N)=O)C(=O)N[C@@H](Cc1c[nH]c2ccccc12)C(=O)N[C@@H](CC(C)C)C(=O)N[C@H](C(=O)N[C@@H](CCCNC(=N)N)C(=O)N[C@@H](CCC(N)=O)C(=O)N[C@@H](CCCNC(=N)N)C(=O)N[C@@H](Cc1ccc(O)cc1)C(N)=O)[C@@H](C)O)C(C)C` [Compound 108, N{alpha-4}-(3-methylbutanoyl)-N{epsilon-7}-[2-(2-{2-[2-(2-{2-[(4S)-4-carboxy-4-(17-carboxyheptadecanamido)butanamido]ethoxy}ethoxy)acetamido]ethoxy}ethoxy)acetamido]-[4A,7K,9E,18Q,22V,23E,28Y,30W,31L]hPYY (4-36)], the “Acute Food Intake 24 h [% vehicle]” value in the experiment on normal NMRI mice turned out to be 47 % vehicle. For the same compound, in experiment [1], the inhibition constant Ki was 0.99 nM.

On to `CC[C@H](C)[C@H](NC(=O)[C@H](CCC(=O)O)NC(=O)[C@H](CCC(=O)O)NC(=O)[C@@H]1CCCN1C(=O)[C@H](CCC(=O)O)NC(=O)[C@H](C)NC(=O)[C@H](CC(=O)O)NC(=O)[C@H](CCC(=O)O)NC(=O)[C@H](CCC(=O)O)NC(=O)[C@@H]1CCCN1C(=O)[C@H](CCCCNC(=O)COCCOCCNC(=O)COCCOCCNC(=O)CC[C@H](NC(=O)CCCCCCCCCCCCCCCCC(=O)O)C(=O)O)NC(=O)[C@H](CCC(=O)O)NC(=O)[C@@H]1CCCN1C(=O)[C@H](C)NC(=O)CC(C)C)C(=O)N[C@@H](CCC(N)=O)C(=O)N[C@@H](CCCNC(=N)N)C(=O)N[C@@H](Cc1ccc(O)cc1)C(=O)N[C@@H](Cc1ccc(O)cc1)C(=O)N[C@H](C(=O)N[C@@H](CO)C(=O)N[C@@H](CC(C)C)C(=O)N[C@@H](CCCNC(=N)N)C(=O)N[C@@H](Cc1c[nH]cn1)C(=O)N[C@@H](Cc1ccc(O)cc1)C(=O)N[C@@H](Cc1ccc(O)cc1)C(=O)N[C@@H](CC(N)=O)C(=O)N[C@@H](Cc1c[nH]c2ccccc12)C(=O)N[C@@H](CC(C)C)C(=O)N[C@H](C(=O)N[C@@H](CCCNC(=N)N)C(=O)N[C@@H](CCC(N)=O)C(=O)N[C@@H](CCCNC(=N)N)C(=O)N[C@@H](Cc1ccc(O)cc1)C(N)=O)[C@@H](C)O)C(C)C` [Compound 110, N{alpha-4}-(3-methylbutanoyl)-N{epsilon-7}-[2-(2-{2-[2-(2-{2-[(4S)-4-carboxy-4-(17-carboxyheptadecanamido)butanamido]ethoxy}ethoxy)acetamido]ethoxy}ethoxy)acetamido]-[4A,7K,9E,13E,17I,18Q,22V,28Y,30W,31L]hPYY (4-36)], for which, in the experiment with normal NMRI mice, the “Acute Food Intake 24 h [% vehicle]” value is recorded as 67 % vehicle. Moreover, in experiment [1], the Ki worked out at 0.77 nM.

Consider `CC(C)CC(=O)N[C@@H](C)C(=O)N1CCC[C@H]1C(=O)N[C@@H](CCC(=O)O)C(=O)N[C@@H](CCCCNC(=O)COCCOCCNC(=O)COCCOCCNC(=O)CC[C@H](NC(=O)CCCCCCCCCCCCCCCCC(=O)O)C(=O)O)C(=O)N1CCC[C@H]1C(=O)N[C@@H](CCC(=O)O)C(=O)N[C@@H](CCC(=O)O)C(=O)N[C@@H](CCC(=O)O)C(=O)N[C@@H](C)C(=O)N[C@@H](CO)C(=O)N1CCC[C@H]1C(=O)N[C@@H](CCC(=O)O)C(=O)N[C@@H](C)C(=O)N[C@@H](CC(C)C)C(=O)N[C@@H](CCC(N)=O)C(=O)N[C@@H](CCCNC(=N)N)C(=O)N[C@@H](Cc1ccc(O)cc1)C(=O)N[C@@H](Cc1ccc(O)cc1)C(=O)N[C@H](C(=O)N[C@@H](CO)C(=O)N[C@@H](CC(C)C)C(=O)N[C@@H](CCCNC(=N)N)C(=O)N[C@@H](Cc1c[nH]cn1)C(=O)N[C@@H](Cc1ccc(O)cc1)C(=O)N[C@@H](Cc1ccc(O)cc1)C(=O)N[C@@H](CC(N)=O)C(=O)N[C@@H](Cc1c[nH]c2ccccc12)C(=O)N[C@@H](CC(C)C)C(=O)N[C@H](C(=O)N[C@@H](CCCNC(=N)N)C(=O)N[C@@H](CCC(N)=O)C(=O)N[C@@H](CCCNC(=N)N)C(=O)N[C@@H](Cc1ccc(O)cc1)C(N)=O)[C@@H](C)O)C(C)C` [Compound 115, N{alpha-4}-(3-methylbutanoyl)-N{epsilon-7}-[2-(2-{2-[2-(2-{2-[(4S)-4-carboxy-4-(17-carboxyheptadecanamido)butanamido]ethoxy}ethoxy)acetamido]ethoxy}ethoxy)acetamido]-[4A,7K,9E,11E,16A,18Q,22V,28Y,30W,31L]hPYY (4-36)], for which, in the experiment on normal NMRI mice, the “Acute Food Intake 24 h [% vehicle]” value came to 49 % vehicle. In experiment [1], the inhibition constant Ki is 1.94 nM.

In the case of `CC[C@H](C)[C@H](NC(=O)[C@H](CCC(=O)O)NC(=O)[C@H](CCC(=O)O)NC(=O)[C@@H]1CCCN1C(=O)[C@H](C)NC(=O)[C@H](C)NC(=O)[C@H](CC(=O)O)NC(=O)[C@H](CCC(=O)O)NC(=O)[C@H](CCC(=O)O)NC(=O)[C@@H]1CCCN1C(=O)[C@H](CCCCNC(=O)COCCOCCNC(=O)COCCOCCNC(=O)CC[C@H](NC(=O)CCCCCCCCCCCCCCCCC(=O)O)C(=O)O)NC(=O)[C@H](CCC(=O)O)NC(=O)[C@@H]1CCCN1C(=O)[C@H](C)NC(=O)CC(C)C)C(=O)N[C@@H](CCC(N)=O)C(=O)N[C@@H](CCCNC(=N)N)C(=O)N[C@@H](Cc1ccc(O)cc1)C(=O)N[C@@H](Cc1ccc(O)cc1)C(=O)N[C@H](C(=O)N[C@@H](CO)C(=O)N[C@@H](CC(C)C)C(=O)N[C@@H](CCCNC(=N)N)C(=O)N[C@@H](Cc1c[nH]cn1)C(=O)N[C@@H](Cc1ccc(O)cc1)C(=O)N[C@@H](Cc1ccc(O)cc1)C(=O)N[C@@H](CC(N)=O)C(=O)N[C@@H](Cc1c[nH]c2ccccc12)C(=O)N[C@@H](CC(C)C)C(=O)N[C@H](C(=O)N[C@@H](CCCNC(=N)N)C(=O)N[C@@H](CCC(N)=O)C(=O)N[C@@H](CCCNC(=N)N)C(=O)N[C@@H](Cc1ccc(O)cc1)C(N)=O)[C@@H](C)O)C(C)C` [Compound 124, N{alpha-4}-(3-methylbutanoyl)-N{epsilon-7}-[2-(2-{2-[2-(2-{2-[(4S)-4-carboxy-4-(17-carboxyheptadecanamido)butanamido]ethoxy}ethoxy)acetamido]ethoxy}ethoxy)acetamido]-[4A,7K,9E,13A,17I,18Q,22V,28Y,30W,31L]hPYY (4-36)], in the experiment on normal NMRI mice, the “Acute Food Intake 24 h [% vehicle]” value was 58 % vehicle. In addition, the Ki in experiment [1] turned out to be 0.5 nM.

With `CC(C)CC(=O)N[C@@H](C)C(=O)N1CCC[C@H]1C(=O)N[C@@H](CCC(=O)O)C(=O)N[C@@H](CCCCNC(=O)COCCOCCNC(=O)COCCOCCNC(=O)CC[C@H](NC(=O)CCCCCCCCCCCCCCCCC(=O)O)C(=O)O)C(=O)N1CCC[C@H]1C(=O)N[C@@H](CCC(=O)O)C(=O)N[C@@H](CCC(=O)O)C(=O)N[C@@H](CC(=O)O)C(=O)N[C@@H](C)C(=O)N[C@@H](CO)C(=O)N1CCC[C@H]1C(=O)N[C@@H](CCC(=O)O)C(=O)N[C@@H](CCC(=O)O)C(=O)N[C@@H](CC(C)C)C(=O)N[C@@H](CCC(N)=O)C(=O)N[C@@H](CCCCN)C(=O)N[C@@H](Cc1ccc(O)cc1)C(=O)N[C@@H](Cc1ccc(O)cc1)C(=O)N[C@H](C(=O)N[C@H](C(=O)N[C@@H](CC(C)C)C(=O)N[C@@H](CCCNC(=N)N)C(=O)N[C@@H](Cc1c[nH]cn1)C(=O)N[C@@H](Cc1ccc(O)cc1)C(=O)N[C@@H](Cc1ccc(O)cc1)C(=O)N[C@@H](CC(N)=O)C(=O)N[C@@H](Cc1c[nH]c2ccccc12)C(=O)N[C@@H](CC(C)C)C(=O)N[C@H](C(=O)N[C@@H](CCCNC(=N)N)C(=O)N[C@@H](CCC(N)=O)C(=O)N[C@@H](CCCNC(=N)N)C(=O)N[C@@H](Cc1ccc(O)cc1)C(N)=O)[C@@H](C)O)[C@@H](C)O)C(C)C` [Compound 132, N{alpha-4}-(3-methylbutanoyl)-N{epsilon-7}-[2-(2-{2-[2-(2-{2-[(4S)-4-carboxy-4-(17-carboxyheptadecanamido)butanamido]ethoxy}ethoxy)acetamido]ethoxy}ethoxy)acetamido]-[4A,7K,9E,18Q,19K,22V,23T,28Y,30W,31L]hPYY (4-36)], the “Acute Food Intake 24 h [% vehicle]” value in the experiment with normal NMRI mice came to 64 % vehicle. Besides, the inhibition constant Ki in experiment [1] came to 1.18 nM.
